Experimental data as given in ChEMBL document CHEMBL1145743, “High-throughput synthesis and optimization of thrombin inhibitors via urazole alpha-addition and Michael addition” (Bioorg Med Chem Lett, 2003).
Activity calls are given as the source filed them. The calls are words filed in the database; no cut-off is given here.

What follows are compounds tested against T1, Prothrombin (Homo sapiens, UniProt P00734) (assay: Inhibitory activity against thrombin at concentration 400 nM; NA: Not active). Conditions: not given.
In the case of `CCCSCC(C(=O)O)n1c(=O)n2n(c1=O)C(C(=O)NC[C@H]1CC[C@H](N)CC1)C=CC2` (some centres not stated), the inhibition is reported as “inactive”.

What follows are compounds tested against T1, Prothrombin (assay: Inhibitory activity against thrombin; NA=not active). Conditions: not given.
`Cc1nc(N)ccc1CNC(=O)C1C=CCn2c(=O)n(C(CSc3ccc(Br)cc3)C(=O)O)c(=O)n21` (configuration not stated) was tested, and the Ki was “Not Active”.
In the case of `Cc1nc(N)ccc1CNC(=O)C1C=CCn2c(=O)n(C(CSc3ccc(Cl)c(Cl)c3)C(=O)N3CCOCC3)c(=O)n21` (configuration not stated), the Ki is reported as “Not Active”.
In the case of `CCOC(=O)C(CSc1ccc(Cl)cc1)n1c(=O)n2n(c1=O)C(C(=O)NCc1ccc(N)nc1C)C=CC2` (configuration not stated), the Ki is reported as “Not Active”.

The compounds below were run against T1, Prothrombin. Conditions: at 400 nM.
Description: Inhibitory activity against thrombin at 400 nM; NA=not active
In the case of `CC(=O)Nc1ccc(SCC(C(=O)O)n2c(=O)n3n(c2=O)C(C(=O)NC[C@H]2CC[C@H](N)CC2)C=CC3)cc1` (some centres not stated), the inhibition is reported as “inactive”.
For `COC(=O)C(CSc1ccc(C)cc1C)n1c(=O)n2n(c1=O)C(C(=O)NCc1ccc(N)nc1C)C=CC2` (configuration not stated), the inhibition was “inactive”.
With `Cc1nc(N)ccc1CNC(=O)C1C=CCn2c(=O)n(C(CSc3ccc(Br)cc3)C(=O)O)c(=O)n21` (configuration not stated) the inhibition was “inactive”.
With `COC(=O)C(CSCC(O)CO)n1c(=O)n2n(c1=O)C(C(=O)NCc1ccc(N)nc1C)C=CC2` (configuration not stated) the inhibition was “inactive”.
With `COC(=O)C(CNCC(C)C)n1c(=O)n2n(c1=O)C(C(=O)NCc1ccc(N)nc1C)C=CC2` (configuration not stated) the inhibition was “inactive”.
In the case of `Cc1nc(N)ccc1CNC(=O)C1C=CCn2c(=O)n(C(CNCC(C)C)C(=O)O)c(=O)n21` (configuration not stated), the inhibition is reported as “inactive”.
In the case of `COC(=O)C(CSc1ccc(Br)cc1)n1c(=O)n2n(c1=O)C(C(=O)NC[C@H]1CC[C@H](N)CC1)C=CC2` (some centres not stated), the inhibition is reported as “inactive”.
In the case of `COC(=O)C(CNC1CCCCC1)n1c(=O)n2n(c1=O)C(C(=O)NCc1ccc(N)nc1C)C=CC2` (configuration not stated), the inhibition is reported as “inactive”.
`Cc1nc(N)ccc1CNC(=O)C1C=CCn2c(=O)n(C(CSCC(C)C)C(=O)O)c(=O)n21` (configuration not stated) was tested, and the inhibition was “inactive”.
In the case of `CCCSCC(C(=O)O)n1c(=O)n2n(c1=O)C(C(=O)NCc1ccc(N)nc1C)C=CC2` (configuration not stated), the inhibition is reported as “inactive”.
In the case of `N[C@H]1CC[C@H](CNC(=O)C2C=CCn3c(=O)n(C(CNC4CCCCC4)C(=O)O)c(=O)n32)CC1` (some centres not stated), the inhibition is reported as “inactive”.
In the case of `Cc1nc(N)ccc1CNC(=O)C1C=CCn2c(=O)n(C(CNCc3ccccc3)C(=O)O)c(=O)n21` (configuration not stated), the inhibition is reported as “inactive”.

What follows are compounds tested against T1, Prothrombin (assay: Inhibitory activity against human thrombin). Conditions: not given.
`Cc1nc(N)ccc1CNC(=O)C1C=CCn2c(=O)n(C(CSC3CCCCC3)C(=O)O)c(=O)n21` (configuration not stated) was tested, and the Ki was 11 nM.
With `COC(=O)C(CSc1ccc(OC)cc1)n1c(=O)n2n(c1=O)C(C(=O)NCc1ccc(N)nc1C)C=CC2` (configuration not stated) the Ki was 80 nM.
For `Cc1nc(N)ccc1CNC(=O)C1C=CCn2c(=O)n(C(CSc3ccc(Cl)cc3)C(=O)OC3CCCCC3)c(=O)n21` (configuration not stated), the Ki was 0.057 nM.
Compound `Cc1nc(N)ccc1CNC(=O)C1C=CCn2c(=O)n(C(CSc3ccc(Br)cc3)C(=O)N3CCCC3)c(=O)n21` (configuration not stated) has a Ki of 30 nM.
Compound `COC(=O)C(CSc1ccc(Br)cc1)n1c(=O)n2n(c1=O)C(C(=O)NCc1ccc(N)nc1C)C=CC2` (configuration not stated) has a Ki of 83 nM.
Compound `COC(=O)C(CSc1ccc(Cl)cc1)n1c(=O)n2n(c1=O)C(C(=O)NC[C@H]1CC[C@H](N)CC1)C=CC2` (some centres not stated) has a Ki of 0.32 nM.
Compound `COC(=O)C(CSc1ccccc1)n1c(=O)n2n(c1=O)C(C(=O)NC[C@H]1CC[C@H](N)CC1)C=CC2` (some centres not stated) has a Ki of 2.9 nM.
In the case of `Cc1nc(N)ccc1CNC(=O)C1C=CCn2c(=O)n(C(CSc3ccc(Cl)c(Cl)c3)C(=O)O)c(=O)n21` (configuration not stated), the Ki is reported as 22 nM.
Compound `Cc1nc(N)ccc1CNC(=O)C1C=CCn2c(=O)n(C(CSc3ccc(Br)cc3)C(=O)N3CCOCC3)c(=O)n21` (configuration not stated) has a Ki of 39 nM.
For `COc1ccc(SCC(C(=O)O)n2c(=O)n3n(c2=O)C(C(=O)NCc2ccc(N)nc2C)C=CC3)cc1` (configuration not stated), the Ki was 29 nM.
In the case of `N[C@H]1CC[C@H](CNC(=O)C2C=CCn3c(=O)n(C(CSc4ccc(Cl)cc4)C(=O)O)c(=O)n32)CC1` (some centres not stated), the Ki is reported as 5.7 nM.
Work on `Cc1nc(N)ccc1CNC(=O)C1C=CCn2c(=O)n(C(CSc3ccc(Cl)cc3)C(=O)OC(C)C)c(=O)n21` (configuration not stated) yielded a Ki of 1.5 nM.
In the case of `Cc1nc(N)ccc1CNC(=O)C1C=CCn2c(=O)n(C(CSc3ccc(Cl)cc3)C(=O)N3CCOCC3)c(=O)n21` (configuration not stated), the Ki is reported as 7.7 nM.
In the case of `N[C@H]1CC[C@H](CNC(=O)C2C=CCn3c(=O)n(C(CSc4ccc(Cl)c(Cl)c4)C(=O)O)c(=O)n32)CC1` (some centres not stated), the Ki is reported as 13 nM.
For `CCOC(=O)C(CSc1ccc(Br)cc1)n1c(=O)n2n(c1=O)C(C(=O)NCc1ccc(N)nc1C)C=CC2` (configuration not stated), the Ki was 0.27 nM.
Compound `N[C@H]1CC[C@H](CNC(=O)C2C=CCn3c(=O)n(C(CSC4CCCCC4)C(=O)O)c(=O)n32)CC1` (some centres not stated) has a Ki of 53 nM.
`Cc1nc(N)ccc1CNC(=O)C1C=CCn2c(=O)n(C(CSc3ccccc3)C(=O)O)c(=O)n21` (configuration not stated) gave a Ki of 15 nM.
In the case of `COC(=O)C(CSc1ccccc1)n1c(=O)n2n(c1=O)C(C(=O)NCc1ccc(N)nc1C)C=CC2` (configuration not stated), the Ki is reported as 32 nM.
`COC(=O)C(CSc1ccc(Cl)c(Cl)c1)n1c(=O)n2n(c1=O)C(C(=O)NCc1ccc(N)nc1C)C=CC2` (configuration not stated) gave a Ki of 78 nM.
In the case of `Cc1nc(N)ccc1CNC(=O)C1C=CCn2c(=O)n(C(CSc3ccc(Br)cc3)C(=O)OC(C)C)c(=O)n21` (configuration not stated), the Ki is reported as 0.087 nM.
For `Cc1nc(N)ccc1CNC(=O)C1C=CCn2c(=O)n(C(CSc3ccc(Cl)c(Cl)c3)C(=O)OC(C)C)c(=O)n21` (configuration not stated), the Ki was 53 nM.
`COC(=O)C(CSC1CCCCC1)n1c(=O)n2n(c1=O)C(C(=O)NCc1ccc(N)nc1C)C=CC2` (configuration not stated) gave a Ki of 28 nM.
Work on `N[C@H]1CC[C@H](CNC(=O)C2C=CCn3c(=O)n(C(CSc4ccc(Br)cc4)C(=O)O)c(=O)n32)CC1` (some centres not stated) yielded a Ki of 2.6 nM.
In the case of `Cc1nc(N)ccc1CNC(=O)C1C=CCn2c(=O)n(C(CSc3ccc(Cl)cc3)C(=O)N3CCCC3)c(=O)n21` (configuration not stated), the Ki is reported as 24 nM.
Work on `CCOC(=O)C(CSc1ccc(Cl)c(Cl)c1)n1c(=O)n2n(c1=O)C(C(=O)NCc1ccc(N)nc1C)C=CC2` (configuration not stated) yielded a Ki of 28 nM.
`COC(=O)C(CSC1CCCCC1)n1c(=O)n2n(c1=O)C(C(=O)NC[C@H]1CC[C@H](N)CC1)C=CC2` (some centres not stated) was tested, and the Ki was 91 nM.
With `Cc1nc(N)ccc1CNC(=O)C1C=CCn2c(=O)n(C(CSc3ccc(Br)cc3)C(=O)OC3CCCCC3)c(=O)n21` (configuration not stated) the Ki was 1.5 nM.
For `COC(=O)C(CSc1ccc(OC)cc1)n1c(=O)n2n(c1=O)C(C(=O)NC[C@H]1CC[C@H](N)CC1)C=CC2` (some centres not stated), the Ki was 0.75 nM.
For `N[C@H]1CC[C@H](CNC(=O)C2C=CCn3c(=O)n(C(CSc4ccccc4)C(=O)O)c(=O)n32)CC1` (some centres not stated), the Ki was 36 nM.
`COC(=O)C(CSc1ccc(Br)cc1)n1c(=O)n2n(c1=O)C(C(=O)NC[C@H]1CC[C@H](N)CC1)C=CC2` (some centres not stated) gave a Ki of 0.023 nM.
With `Cc1nc(N)ccc1CNC(=O)C1C=CCn2c(=O)n(C(CSc3ccc(Cl)cc3)C(=O)O)c(=O)n21` (configuration not stated) the Ki was 32 nM.
Compound `Cc1nc(N)ccc1CNC(=O)C1C=CCn2c(=O)n(C(CSc3ccc(Cl)c(Cl)c3)C(=O)OC3CCCCC3)c(=O)n21` (configuration not stated) has a Ki of 87 nM.
`COc1ccc(SCC(C(=O)O)n2c(=O)n3n(c2=O)C(C(=O)NC[C@H]2CC[C@H](N)CC2)C=CC3)cc1` (some centres not stated) showed a Ki of 4.7 nM.
`Cc1nc(N)ccc1CNC(=O)C1C=CCn2c(=O)n(C(CSc3ccc(Cl)c(Cl)c3)C(=O)N3CCCC3)c(=O)n21` (configuration not stated) gave a Ki of 18 nM.
Compound `COC(=O)C(CSc1ccc(Cl)cc1)n1c(=O)n2n(c1=O)C(C(=O)NCc1ccc(N)nc1C)C=CC2` (configuration not stated) has a Ki of 82 nM.
`COC(=O)C(CSc1ccc(Cl)c(Cl)c1)n1c(=O)n2n(c1=O)C(C(=O)NC[C@H]1CC[C@H](N)CC1)C=CC2` (some centres not stated) was tested, and the Ki was 0.24 nM.
